Data set [1] concerns the target Sigma non-opioid intracellular receptor 1 (Homo sapiens, UniProt Q99720).
Description: Displacement of [3H]-pentazocin from the Sigma1 receptor
Data set [2] concerns the target Voltage-gated inwardly rectifying potassium channel KCNH2 (Homo sapiens, UniProt Q12809).
Description: hERG binding assays: Displacement of [3H]-Dofetilide (5 nM final) from hERG membranes obtained from HEK293 cells
The subject of data set [3] is Vero C1008. The experiment in a line: AUC (cytotoxicity %) of compound against Vero E6 cells by MTT assay. In kind it is toxicity, cell-based. The settings on record: chlorocebus sabaeus. In general terms: Tetrazolium dyes change colour on reduction, which living cells bring about.
Data set [4] addresses T1, Muscarinic acetylcholine receptor M4 (Homo sapiens, UniProt P08173).
T1 sequence (P08173 whole entry): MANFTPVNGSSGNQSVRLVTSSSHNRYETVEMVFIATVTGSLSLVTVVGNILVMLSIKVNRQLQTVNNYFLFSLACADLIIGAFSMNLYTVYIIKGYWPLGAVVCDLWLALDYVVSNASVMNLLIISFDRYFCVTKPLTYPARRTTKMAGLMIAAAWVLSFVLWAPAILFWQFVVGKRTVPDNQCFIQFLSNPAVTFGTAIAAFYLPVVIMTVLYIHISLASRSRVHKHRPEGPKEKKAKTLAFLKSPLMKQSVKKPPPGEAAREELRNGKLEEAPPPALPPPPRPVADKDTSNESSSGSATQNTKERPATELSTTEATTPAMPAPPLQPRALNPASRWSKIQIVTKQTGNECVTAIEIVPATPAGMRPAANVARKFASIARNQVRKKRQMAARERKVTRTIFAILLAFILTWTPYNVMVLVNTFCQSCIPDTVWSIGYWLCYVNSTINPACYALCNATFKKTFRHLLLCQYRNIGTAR
In words: Activity of compound against Muscarinic acetylcholine receptor M4 (CHRM4) by displacement of 3H-QNB. Background: In a radioligand displacement assay an active substance lowers the binding of a labelled ligand.

Data set [5] concerns the target Sigma intracellular receptor 2 (Homo sapiens, UniProt Q5BJF2). The experiment in a line: Displacement of [3H]-DTG from the Sigma2 receptor.
Data set [6] concerns the target T2, Muscarinic acetylcholine receptor M2 (Homo sapiens, UniProt P08172).
T2 sequence (P08172 whole entry): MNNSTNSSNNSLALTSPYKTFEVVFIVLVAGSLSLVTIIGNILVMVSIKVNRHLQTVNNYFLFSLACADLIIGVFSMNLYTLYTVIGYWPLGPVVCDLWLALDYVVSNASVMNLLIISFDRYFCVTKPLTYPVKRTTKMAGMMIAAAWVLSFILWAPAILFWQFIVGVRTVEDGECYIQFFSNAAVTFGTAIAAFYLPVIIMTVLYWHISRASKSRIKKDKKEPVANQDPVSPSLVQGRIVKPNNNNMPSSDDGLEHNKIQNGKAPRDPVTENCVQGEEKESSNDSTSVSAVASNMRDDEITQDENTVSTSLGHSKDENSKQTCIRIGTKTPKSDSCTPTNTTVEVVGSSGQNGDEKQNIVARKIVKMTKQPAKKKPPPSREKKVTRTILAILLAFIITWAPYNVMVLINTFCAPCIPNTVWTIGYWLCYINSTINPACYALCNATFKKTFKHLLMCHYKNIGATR
In words: Activity of compound against Muscarinic acetylcholine receptor M2 (CHRM2) by displacement of 3H-QNB.

Data set [7] deals with SARS-CoV-2. The settings on record: Chlorocebus sabaeus; Vero C1008.
Data set [8] concerns the target T3, Muscarinic acetylcholine receptor M5 (Homo sapiens, UniProt P08912).
T3 sequence (P08912 whole entry): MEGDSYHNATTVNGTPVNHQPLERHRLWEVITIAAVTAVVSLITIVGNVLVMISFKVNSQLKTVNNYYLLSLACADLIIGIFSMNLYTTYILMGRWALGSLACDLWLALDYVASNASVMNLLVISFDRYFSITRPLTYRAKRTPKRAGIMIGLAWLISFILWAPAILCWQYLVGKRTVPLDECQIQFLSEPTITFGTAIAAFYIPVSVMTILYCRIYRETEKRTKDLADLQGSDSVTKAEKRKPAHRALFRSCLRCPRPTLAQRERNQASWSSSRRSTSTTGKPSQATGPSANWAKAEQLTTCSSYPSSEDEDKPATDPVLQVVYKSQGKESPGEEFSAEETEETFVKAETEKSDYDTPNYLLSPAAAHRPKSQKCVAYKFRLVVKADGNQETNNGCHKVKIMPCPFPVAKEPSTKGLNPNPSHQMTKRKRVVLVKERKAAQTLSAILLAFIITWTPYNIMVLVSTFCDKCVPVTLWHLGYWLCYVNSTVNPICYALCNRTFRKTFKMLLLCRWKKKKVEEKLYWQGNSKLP
In words: Activity of compound against Muscarinic acetylcholine receptor M5 (CHRM5) by displacement of 3H-QNB.

Data set [9] has as its target T4, Alpha-2A adrenergic receptor (Homo sapiens, UniProt P08913).
T4 sequence (P08913 whole entry): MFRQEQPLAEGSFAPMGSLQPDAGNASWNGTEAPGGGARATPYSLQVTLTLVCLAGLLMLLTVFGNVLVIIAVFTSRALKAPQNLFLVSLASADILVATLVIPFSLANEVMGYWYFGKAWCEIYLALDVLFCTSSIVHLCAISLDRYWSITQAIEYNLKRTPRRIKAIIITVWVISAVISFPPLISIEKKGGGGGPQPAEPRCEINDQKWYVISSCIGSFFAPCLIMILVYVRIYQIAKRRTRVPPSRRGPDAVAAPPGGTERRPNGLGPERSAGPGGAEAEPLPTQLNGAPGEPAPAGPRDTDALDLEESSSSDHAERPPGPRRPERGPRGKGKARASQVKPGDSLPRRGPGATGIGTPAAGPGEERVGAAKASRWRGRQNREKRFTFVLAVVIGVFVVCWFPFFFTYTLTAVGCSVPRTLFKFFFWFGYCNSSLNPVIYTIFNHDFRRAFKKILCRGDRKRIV
The experiment in a line: Activity of compound against Alpha-2A (ADRA2A) adrenergic receptor by displacement of [3H]-rauwolscine.

Data set [10] relates to SARS-CoV-2. The experiment in a line: IC90 for antiviral activity against SARS-CoV-2 in the Vero E6 cell line by measuring infectious viral titer of supernatent from compound-treated Vero E6 cells by Median Tissue Culture Infectious Dose (TCID)50 by the method of Reed and Muench. In kind it is functional, Chlorocebus sabaeus. The settings on record: Severe acute respiratory syndrome coronavirus 2, Vero C1008.

The test system of data set [11] is Vero C1008. The experiment in a line: (§1) Cytotoxicity of compound against Vero E6 cells by MTT assay. The settings on record: chlorocebus sabaeus, vero c1008.
For data set [12], the system named is SARS-CoV-2. The settings on record: Chlorocebus sabaeus; Vero C1008. This is another data set of the same source.
Data set [13] is described as follows: as §1. The settings on record: chlorocebus sabaeus, Vero E6 cells.
The nature of data set [14]: in vitro. The settings on record: monkey, Vero E6 cells.

The source made the active and inactive calls. The rule behind the calls is not given here.

Sequence of Sigma non-opioid intracellular receptor 1 (Q99720 whole entry): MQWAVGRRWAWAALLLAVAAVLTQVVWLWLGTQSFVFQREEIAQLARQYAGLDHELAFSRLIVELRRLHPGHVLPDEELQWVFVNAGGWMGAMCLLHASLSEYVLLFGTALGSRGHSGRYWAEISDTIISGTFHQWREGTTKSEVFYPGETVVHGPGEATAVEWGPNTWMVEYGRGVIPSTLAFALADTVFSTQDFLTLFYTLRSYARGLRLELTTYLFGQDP
Sequence of Voltage-gated inwardly rectifying potassium channel KCNH2 (Q12809 whole entry): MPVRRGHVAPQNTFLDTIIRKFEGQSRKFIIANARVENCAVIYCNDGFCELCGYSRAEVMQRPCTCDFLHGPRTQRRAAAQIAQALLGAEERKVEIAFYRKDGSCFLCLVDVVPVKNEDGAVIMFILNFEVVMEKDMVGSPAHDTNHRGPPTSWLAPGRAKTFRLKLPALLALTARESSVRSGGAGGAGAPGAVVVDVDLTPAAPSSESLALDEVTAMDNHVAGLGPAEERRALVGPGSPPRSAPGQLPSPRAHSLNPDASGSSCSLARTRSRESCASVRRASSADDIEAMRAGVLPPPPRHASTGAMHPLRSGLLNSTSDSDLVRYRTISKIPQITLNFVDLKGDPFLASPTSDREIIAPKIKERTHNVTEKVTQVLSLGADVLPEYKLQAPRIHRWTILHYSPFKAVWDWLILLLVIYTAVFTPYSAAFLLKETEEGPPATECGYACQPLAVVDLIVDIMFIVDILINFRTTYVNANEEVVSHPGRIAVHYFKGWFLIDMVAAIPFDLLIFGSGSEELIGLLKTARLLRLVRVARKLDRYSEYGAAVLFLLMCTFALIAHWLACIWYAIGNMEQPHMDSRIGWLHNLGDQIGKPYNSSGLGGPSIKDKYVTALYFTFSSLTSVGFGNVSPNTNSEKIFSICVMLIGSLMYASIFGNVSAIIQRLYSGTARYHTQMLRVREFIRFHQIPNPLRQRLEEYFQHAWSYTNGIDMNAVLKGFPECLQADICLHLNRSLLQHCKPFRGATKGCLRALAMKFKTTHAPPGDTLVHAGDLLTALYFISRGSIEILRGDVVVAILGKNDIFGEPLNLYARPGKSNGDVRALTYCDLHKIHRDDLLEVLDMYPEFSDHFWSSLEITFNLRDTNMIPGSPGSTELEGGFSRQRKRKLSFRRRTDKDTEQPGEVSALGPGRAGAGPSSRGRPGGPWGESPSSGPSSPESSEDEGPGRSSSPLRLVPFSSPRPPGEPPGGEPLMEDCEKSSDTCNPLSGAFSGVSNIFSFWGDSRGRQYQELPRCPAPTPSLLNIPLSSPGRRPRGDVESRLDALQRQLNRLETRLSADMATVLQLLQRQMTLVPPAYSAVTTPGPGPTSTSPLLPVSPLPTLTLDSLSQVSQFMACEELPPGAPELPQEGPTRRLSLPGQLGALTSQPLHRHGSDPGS
Sequence of Sigma intracellular receptor 2 (Q5BJF2 whole entry): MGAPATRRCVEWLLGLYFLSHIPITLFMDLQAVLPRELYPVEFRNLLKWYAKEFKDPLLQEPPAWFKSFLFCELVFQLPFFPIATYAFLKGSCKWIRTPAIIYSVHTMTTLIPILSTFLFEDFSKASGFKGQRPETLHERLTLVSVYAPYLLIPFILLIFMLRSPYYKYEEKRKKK

As usually defined, the Ki is the dissociation constant of the complex between target and ligand, obtained from inhibition or displacement. Usually IC90 stands for the point of the concentration-response curve where the effect stands at 90%. The low end stands for an effect from little substance, the high end for a need for much substance. With `CCN(CCO)CCCC(C)Nc1ccnc2cc(Cl)ccc12` (stereo not drawn) [HYDROXYCHLOROQUINE], the inhibition constant (Ki) was 0.126 µM in [1]; 2.51 µM in data set [2]; 5.5 µM in data set [4]; 1 µM in data set [5]; 5.13 µM in data set [6]; 20 µM in data set [8]. The molecule further showed a Ki in data set [9] of 6.46 µM. This molecule also yielded an AUC cytotoxicity in data set [3] of 234.6. The AUC in data set [7] is 140. The 90% effect concentration (IC90) in data set [10] was determined as 5.78 µM.
As to `CCOC(=O)N1CCC(=C2c3ccc(Cl)cc3CCc3cccnc32)CC1` [LORATADINE], the pCC50 entry in data set [11] is on record as “Linear Fit”. Moreover, in data set [12], the pIC50 result was “Linear Fit; INACTIVE”.
As usually defined, the CC50 is the concentration at which the toxic effect on the cells reaches its halfway point. Read a low CC50 as greater toxicity to the cells. In data set [3], `CN(C)C(=N)N=C(N)N` [METFORMIN] had an AUC cytotoxicity of 305.4. Moreover, the 50% cytotoxic concentration (CC50) in data set [13] is roughly 33.6 µM. Also, the selectivity ratio in data set [14] stood at 1.04.
The molecule `N=C(N)c1ccc2cc(OC(=O)c3ccc(N=C(N)N)cc3)ccc2c1` [NAFAMOSTAT] yielded an AUC cytotoxicity in [3] of 279.9. Further, in data set [11], the pCC50 is ~ 2.44. In addition, the selectivity ratio in data set [14] is 0.926 (inactive).

These data come from ChEMBL document CHEMBL4303773 (Nature, 2020).
